Reference: ChEMBL document CHEMBL1201862, “PubChem BioAssay data set” (2004)
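Where inhibition never reached the appropriate level, the endpoint shown equals the highest concentration tested. Otherwise, values were interpolated linearly from a five-concentration, 48-hour dose response in 96-well plates. Here, GI50 denotes the concentration required for 50% inhibition of growth.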 Active and inactive are the calls of the source. No stated cut-off is given here; in the data, active = GI50 up to about 1.1 µM and inactive = higher.

Columns and labels:
Experiment in all cases: NCI anticancer screen, dose series, 48 h
[1] = tested on: SF-539
[2] = tested on: NCI/ADR-RES
[3] = tested on: MDA-MB-435
[4] = tested on: MDA-N
[5] = tested on: DU-145
[6] = tested on: SNB-75
[7] = tested on: SK-OV-3
[8] = tested on: A549
[9] = tested on: MCF7
[10] = tested on: SN12C
[11] = tested on: OVCAR-5
[12] = tested on: M14
[13] = tested on: HCT-116
[14] = tested on: SW-620
[15] = tested on: SK-MEL-5
[16] = tested on: U-251
[17] = tested on: RPMI-8226
[18] = tested on: NCI-H460
[19] = tested on: HT-29
[20] = tested on: BT-549

SMILES	GI50 [1]	GI50 [2]	GI50 [3]	GI50 [4]	GI50 [5]	GI50 [6]	GI50 [7]	GI50 [8]	GI50 [9]	GI50 [10]	GI50 [11]	GI50 [12]	GI50 [13]	GI50 [14]	GI50 [15]	GI50 [16]	GI50 [17]	GI50 [18]	GI50 [19]	GI50 [20]
C[C@H](O)C1CC(Cn2nnc3c(N)ncnc32)C1(C)C (stereo not given in full)	> 100 µM (inactive)	> 100 µM (inactive)	> 100 µM (inactive)	> 100 µM (inactive)	> 100 µM (inactive)	> 100 µM (inactive)	> 100 µM (inactive)	> 100 µM (inactive)	> 100 µM (inactive)	> 100 µM (inactive)	> 100 µM (inactive)	> 100 µM (inactive)	> 100 µM (inactive)	> 100 µM (inactive)	> 100 µM (inactive)	> 100 µM (inactive)	–	–	–	–
CCOn1cc(C[C@@]2(O)C(=O)OC3[C@@H](O)CO[C@@]32O)c2ccccc21 (stereo not given in full)	> 100 µM (inactive)	> 100 µM (inactive)	> 100 µM (inactive)	–	> 100 µM (inactive)	> 100 µM (inactive)	> 100 µM (inactive)	> 100 µM (inactive)	> 100 µM (inactive)	> 100 µM (inactive)	> 100 µM (inactive)	> 100 µM (inactive)	> 100 µM (inactive)	> 100 µM (inactive)	> 100 µM (inactive)	> 100 µM (inactive)	> 100 µM (inactive)	> 100 µM (inactive)	> 100 µM (inactive)	> 100 µM (inactive)
CC1(C)CC(=O)C2=C(C1)OC1=C(CC(C)(C)CC1=O)C2c1ccccc1Cl (stereo not given)	70.5 µM (inactive)	> 100 µM (inactive)	> 100 µM (inactive)	–	> 100 µM (inactive)	> 100 µM (inactive)	> 100 µM (inactive)	> 100 µM (inactive)	–	> 100 µM (inactive)	> 100 µM (inactive)	> 100 µM (inactive)	> 100 µM (inactive)	> 100 µM (inactive)	43.5 µM (inactive)	> 100 µM (inactive)	> 100 µM (inactive)	> 100 µM (inactive)	> 100 µM (inactive)	–
O=C1CC2C=CC(O)C(C1)C2 (stereo not given)	> 100 µM (inactive)	> 100 µM (inactive)	> 100 µM (inactive)	> 100 µM (inactive)	> 100 µM (inactive)	72.6 µM (inactive)	> 100 µM (inactive)	–	> 100 µM (inactive)	> 100 µM (inactive)	> 100 µM (inactive)	> 100 µM (inactive)	> 100 µM (inactive)	> 100 µM (inactive)	–	> 100 µM (inactive)	> 100 µM (inactive)	> 100 µM (inactive)	> 100 µM (inactive)	–
NC1=CN2c3ccccc3N(CC(=O)O)C2C=C1 (stereo not given)	> 100 µM (inactive)	> 100 µM (inactive)	> 100 µM (inactive)	–	> 100 µM (inactive)	> 100 µM (inactive)	> 100 µM (inactive)	> 100 µM (inactive)	> 100 µM (inactive)	–	> 100 µM (inactive)	> 100 µM (inactive)	> 100 µM (inactive)	> 100 µM (inactive)	> 100 µM (inactive)	> 100 µM (inactive)	> 100 µM (inactive)	> 100 µM (inactive)	> 100 µM (inactive)	> 100 µM (inactive)
C[C@H]1OC(=O)[C@@H]2N=NN(Cc3ccccc3)[C@H]12	> 100 µM (inactive)	> 100 µM (inactive)	> 100 µM (inactive)	> 100 µM (inactive)	> 100 µM (inactive)	–	> 100 µM (inactive)	> 100 µM (inactive)	> 100 µM (inactive)	> 100 µM (inactive)	> 100 µM (inactive)	> 100 µM (inactive)	> 100 µM (inactive)	> 100 µM (inactive)	> 100 µM (inactive)	> 100 µM (inactive)	> 100 µM (inactive)	> 100 µM (inactive)	> 100 µM (inactive)	–
COP(=O)(Cc1ccc(/C=C/C#N)o1)OC	> 100 µM (inactive)	> 100 µM (inactive)	> 100 µM (inactive)	–	> 100 µM (inactive)	> 100 µM (inactive)	> 100 µM (inactive)	> 100 µM (inactive)	> 100 µM (inactive)	–	–	> 100 µM (inactive)	> 100 µM (inactive)	> 10 µM (inactive)	–	> 100 µM (inactive)	> 100 µM (inactive)	> 100 µM (inactive)	> 100 µM (inactive)	–
C/C=C/[C@H]1O[C@@](O)([C@@H](C)[C@H](O)[C@H](C)[C@H]2OC(=O)/C(OC)=C/C(C)=C/[C@@H](C)[C@@H](O)[C@@H](CC)[C@@H](O)[C@H](C)C/C(C)=C/C=C/[C@@H]2OC)C[C@H](OC2CC(O)C(OC(N)=O)C(C)O2)[C@@H]1C (stereo not given in full)	0.0224 µM (active)	0.759 µM (active)	0.0275 µM (active)	–	0.914 µM (active)	0.525 µM (active)	12.8 µM (inactive)	< 0.0181 µM (active)	0.0293 µM (active)	5.65 µM (inactive)	11.9 µM (inactive)	< 0.0161 µM (active)	0.017 µM (active)	< 0.022 µM (active)	0.0142 µM (active)	< 0.0281 µM (active)	< 0.0157 µM (active)	< 0.0111 µM (active)	< 0.01 µM (active)	0.0843 µM (active)
CC1(C)[C@@H](Cn2cc(I)c(=O)[nH]c2=O)CC[C@@]1(C)CO	–	> 100 µM (inactive)	> 100 µM (inactive)	> 100 µM (inactive)	> 100 µM (inactive)	40.3 µM (inactive)	> 100 µM (inactive)	> 100 µM (inactive)	–	> 100 µM (inactive)	> 100 µM (inactive)	> 100 µM (inactive)	> 100 µM (inactive)	> 100 µM (inactive)	92.9 µM (inactive)	> 100 µM (inactive)	–	–	–	–
CC1=C/C(=N\OCC(=O)O)CC(c2ccc(C(C)C)cc2)C1 (stereo not given)	93.1 µM (inactive)	21.1 µM (inactive)	36.8 µM (inactive)	34.5 µM (inactive)	> 100 µM (inactive)	–	> 100 µM (inactive)	60.3 µM (inactive)	52.5 µM (inactive)	60.1 µM (inactive)	> 100 µM (inactive)	35.2 µM (inactive)	45.6 µM (inactive)	34.3 µM (inactive)	17.5 µM (inactive)	63.8 µM (inactive)	23.2 µM (inactive)	42.2 µM (inactive)	16.6 µM (inactive)	–
CCN(CC)CCNc1ccc2nnn3c4ccc(C)cc4c(=O)c1c23	6.14 µM (inactive)	–	–	–	–	10.8 µM (inactive)	10.9 µM (inactive)	5.37 µM (inactive)	–	8 µM (inactive)	6.71 µM (inactive)	12.8 µM (inactive)	3.78 µM (inactive)	4.63 µM (inactive)	10.7 µM (inactive)	11.5 µM (inactive)	4.62 µM (inactive)	3.85 µM (inactive)	4.14 µM (inactive)	–
